Reference: patent US20130040978A1 (priority 2010, published 2013)
Structures can show the parent of a compound that is named as a salt.

Tests used:
SSTR5 [1] = biological target: T1, SSTR5 (Homo sapiens, UniProt P35346); assay: Functional assay of inhibition of SSTR5 mediated cyclic AMP production in SSTR5 expressing CHO cells; assay type: cell-based, human; conditions: forskolin (FSK) plus SS-28, read-out: cAMP IC50
SSTR5 [2] = biological target: T1, SSTR5; assay: SSTR5 receptor-ligand binding assay, CHO-K1 cell membranes, 125I-SRIF radioligand; parameters: expressed in transfected cells; conditions: Table 4, read-out: Bnd IC50
Protocol: The receptor-ligand binding assays of all 5 subtype of SSTRs were performed with membranes isolated from Chinese hamster ovary (CHO)-K1 cells stably expressing the cloned human somatostatin receptors in 96-well format as previous reported. (Yang et al. PNAS 95:10836-10841, (1998), Birzin et al. Anal. Biochem. 307:159-166, (2002)).
The stable cell lines for SSTR1-SSTR5 were developed by stably transfecting with DNA for all five SSTRs using Lipofectamine. Neomycin-resistant clones were selected and maintained in medium containing 400 μg/mL G418 (Rohrer et al. Science 282:737-740, (1998)). Binding assays were performed using (3-125I-Tyr11)-SRIF-14 or (3-125I-Tyrl 1)-SRIF-28 as the radioligand (used at 0.1 nM) and The Packard Unifilter assay plate. The assay buffer consisted of 50 mM TrisHCl (pH 7.8) with 1 mM EGTA, 5 mM MgCl2, leupeptin (10 μg/mL), pepstatin (10 μg/mL), bacitracin (200 μg/mL), and aprotinin (0.5 μg/mL). CHO-K1 cell membranes, radiolabeled somatostatin, and unlabeled test compounds were resuspended or diluted in this assay buffer. Unlabeled test compounds were examined over a range of concentrations from 0.01 nM to 10,000 nM. The Ki values for compounds were determined as described by Cheng and Prusoff Biochem Pharmacol. 22:3099-3108 (1973).

T1 sequence (P35346 whole entry): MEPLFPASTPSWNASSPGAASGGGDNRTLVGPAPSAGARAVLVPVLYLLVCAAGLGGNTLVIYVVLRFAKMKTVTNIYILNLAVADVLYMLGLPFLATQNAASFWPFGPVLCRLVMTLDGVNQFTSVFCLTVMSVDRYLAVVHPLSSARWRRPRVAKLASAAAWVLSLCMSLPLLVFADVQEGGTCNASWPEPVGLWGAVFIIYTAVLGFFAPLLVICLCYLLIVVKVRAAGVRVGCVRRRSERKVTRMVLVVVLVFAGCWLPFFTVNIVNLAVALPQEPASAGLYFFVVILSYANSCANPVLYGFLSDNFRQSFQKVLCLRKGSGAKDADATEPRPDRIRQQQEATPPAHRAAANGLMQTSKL

| Compound | IC50 (SSTR5 [1]) [nM] | IC50 (SSTR5 [2]) [nM] |
| --- | --- | --- |
| CCOc1cc(CN2CCC3(CC2)CC(c2ccc(C(=O)O)cc2)=NO3)cc(OCC)c1OCC(F)(F)F [Example 5, 4-{8-[3,5-Diethoxy-4-(2,2,2-trifluoroethoxy)benzyl]-1-oxa-2,8-diazaspiro[4.5]dec-2-en-3-yl}benzoic acid] | 2.4 | 6 |
| CCOc1cc(CN2CCC3(CC2)CC(c2ccc(C(=O)O)cc2)=NO3)ccc1-c1nccs1 [Example 18, 4-{8-[3-Ethoxy-4-(1,3-thiazol-2-yl)benzyl]-1-oxa-2,8-diazaspiro[4.5]dec-2-en-3-yl}benzoic acid] | 11 | 12 |
| CCOc1cc(CN2CCC3(CC2)CC(c2ccc(C(=O)O)cn2)=NO3)c(-c2ccc(F)c(F)c2F)cc1C [Example 29, 6-{8-[(4-Ethoxy-2′,3′,4′-trifluoro-5-methylbiphenyl-2-yl)methyl]-1-oxa-2,8-diazaspiro[4.5]dec-2-en-3-yl}pyridine-3-carboxylic acid] | 5.6 | 0.99 |
| CCOc1ccc(-c2ccc(F)c(F)c2F)c(CN2CCC3(CC2)CC(c2ccc(C(=O)O)cn2)=NO3)c1 [Example 30, 6-{8-[(4-Ethoxy-2′,3′,4′-trifluorobiphenyl-2-yl)methyl]-1-oxa-2,8-diazaspiro[4.5]dec-2-en-3-yl}pyridine-3-carboxylic acid] | 0.76 | 0.41 |
| CCOc1cc(CN2CCC3(CC2)CC(c2ccc(C(=O)O)cc2)=NO3)cc(OCC)c1-c1ccc(F)cc1 [Example 1, 4-{8-[(2,6-Diethoxy-4′-fluorobiphenyl-4-yl)methyl]-1-oxa-2,8-diazaspiro[4.5]dec-2-en-3-yl}benzoic acid, TFA salt] | 0.72 | 1.2 |
| CCOc1ccc(-c2cc(F)c(F)cc2F)c(CN2CCC3(CC2)CC(c2ccc(C(=O)O)cc2)=NO3)c1 [Example 10, 4-{8-[(4-Ethoxy-2′,4′,5′-trifluorobiphenyl-2-yl)methyl]-1-oxa-2,8-diazaspiro[4.5]dec-2-en-3-yl}benzoic acid] | 5.7 | 1.8 |

The next lines start with the values.

| IC50 (SSTR5 [1]) [nM] | IC50 (SSTR5 [2]) [nM] | Compound |
| --- | --- | --- |
| 3 | 2.9 | CCOc1ccc(-c2ccc(F)cc2F)c(CN2CCC3(CC2)CC(c2ccc(C(=O)O)cc2)=NO3)c1 [Example 4, 4-{8-[(4-Ethoxy-2′,4′-difluorobiphenyl-2-yl)methyl]-1-oxa-2,8-diazaspiro[4.5]dec-2-en-3-yl}benzoic acid] |
| 2.9 | 2.9 | CC(C)Oc1ccc(-c2ccc(F)c(F)c2)c(CN2CCC3(CC2)CC(c2ccc(C(=O)O)cc2)=NO3)c1 [Example 13, 4-(8-{[3′,4′-Difluoro-4-(propan-2-yloxy)biphenyl-2-yl]methyl}-1-oxa-2,8-diazaspiro[4.5]dec-2-en-3-yl)benzoic acid] |
| 8.8 | 10 | CC(C)(C)n1cc(CN2CCC3(CC2)CC(c2ccc(C(=O)O)cn2)=NO3)c(-c2ccc(F)c(Cl)c2)n1 [Example 27, 6-(8-{(1-tert-Butyl-3-(3-chloro-4-fluorophenyl)-1H-pyrazol-4-yl]methyl}-1-oxa-2,8-diazaspiro[4.5]dec-2-en-3-yl)pyridine-3-carboxylic acid] |
| 1.8 | 2.3 | CC(C)(C)n1cc(CN2CCC3(CC2)CC(c2ccc(C(=O)O)cc2)=NO3)c(-c2ccc(F)c(Cl)c2)n1 [Example 24] |
